Read-outs that look alike come from different tables or passages of the source. One block for each compound: values may come before it.
Assays:
[1] = target: T1, Leishmania mexicana arginase (LmARG) (Leishmania mexicana, UniProt Q6TUJ5); assay: Inhibitor profile of recombinant LmARG; format: biochemical; conditions: for inhibition of LmARG / selective inhibition: preference for LmARG over HsARGI / block of LmARG activity (in words): 40 mM compound; for inhibition of LmARG / block of LmARG activity (in words): 40 mM L-arginine substrate; for selective inhibition: preference for LmARG over HsARGI: 40 mM L-arginine, comparison of the two enzymes; for Type of Inhibition: Dixon plot analysis, or assumed where Ki was calculated from panel data; for Ki: Dixon plot analysis; for inhibition: read-out: inhibition of LmARG
human ARGI (HsARGI) [2] = target: T2, human ARGI (HsARGI) (Homo sapiens, UniProt P05089); assay: Inhibitor profile of recombinant HsARGI; format: biochemical; conditions: for selective inhibition: preference for HsARGI over LmARG / block of HsARGI activity (in words) / inhibition of HsARGI: 40 mM compound; for selective inhibition: preference for HsARGI over LmARG: 40 mM L-arginine, comparison of the two enzymes; for block of HsARGI activity (in words) / inhibition of HsARGI: 40 mM L-arginine substrate; for inhibition at 40000 µM: read-out: inhibition of HsARGI
T2 sequence (P05089 1-322): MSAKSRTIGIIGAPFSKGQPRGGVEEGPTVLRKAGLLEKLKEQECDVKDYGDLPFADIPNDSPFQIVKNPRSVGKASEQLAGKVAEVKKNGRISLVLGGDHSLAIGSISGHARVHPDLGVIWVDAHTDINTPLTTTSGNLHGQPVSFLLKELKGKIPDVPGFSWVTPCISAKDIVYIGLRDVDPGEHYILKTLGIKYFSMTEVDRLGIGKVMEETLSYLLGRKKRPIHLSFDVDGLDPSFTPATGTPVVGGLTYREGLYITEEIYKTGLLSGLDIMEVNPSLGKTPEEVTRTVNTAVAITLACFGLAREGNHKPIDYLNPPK

human ARGI (HsARGI) [3] = target: T2, human ARGI (HsARGI); assay: HsARGI kinetic parameters and substrate specificity; format: biochemical; conditions: 50 mM, no L-arginine, 30 min
[4] = target: T1, Leishmania mexicana arginase (LmARG); assay: LmARG kinetic parameters and substrate specificity; conditions: 50 mM, no L-arginine, 30 min; data not shown
[5] = system: Leishmania mexicana promastigotes; assay: Parasite proliferation assay; format: cell-based; conditions: read-out: EC50 (concentration that inhibited growth by 50%); L. mexicana promastigotes, 5 days, alamarBlue; data not shown
L. major promastigotes = conditions: read-out: EC50 against L. major promastigotes; ref Reguera et al., 2009; cited from earlier work
[6] = system: intact L. major promastigotes; conditions: ref Kropf et al., 2005; cited from earlier work
[7] = target: T1, Leishmania mexicana arginase (LmARG); format: biochemical; conditions: co-activation with manganese and zinc; data not shown
N=C(N)NCCC[C@H](N)C(=O)O = assay: purified protein, by the assay type; conditions: other: non-linear regression, L-arginine 7.8 – 50 mM; pH 9.5; 37.0 °C

Compound: NC(CCS)C(=O)O (racemic) [DL-homocysteine]
- inhibition of LmARG [1]: > 50%
- selective inhibition: preference for LmARG over HsARGI [1]: greater potency toward LmARG

Compound: Nc1nc2nc(N)[nH]c2c(=O)[nH]1 [8-aminoguanine]
- selective inhibition: preference for LmARG over HsARGI [1]: greater potency toward LmARG
- Type of Inhibition [1]: Uncompetitive
- Ki ([1]; Ki vs. LmARG): < 2000 µM
- inhibition [1]: > 50%
- selective inhibition: preference for HsARGI over LmARG (human ARGI (HsARGI) [2]): preferentially inhibited the HsARGI activity

Compound: N[C@@H](CCCCB(O)O)C(=O)O [ABH, 2(S)-amino-6-boronohexanoic acid]
- block of LmARG activity (in words) [1]: completely blocked
- Type of Inhibition [1]: Competitive
- Ki ([1]; Ki vs. LmARG): 1.3 µM
- inhibition [1]: > 50%
- Ki (human ARGI (HsARGI) [2]): 3.5 µM
- block of HsARGI activity (in words) (human ARGI (HsARGI) [2]): completely blocked
- inhibition at 40000 µM (human ARGI (HsARGI) [2]): > 50%

Compound: N[C@@H](CSCCB(O)O)C(=O)O [BEC, S-(2-boronoethyl)-L-cysteine]
- block of LmARG activity (in words) [1]: completely blocked
- Type of Inhibition [1]: Competitive
- Ki ([1]; Ki vs. LmARG): ~10 µM
- inhibition [1]: > 50%
- Ki (human ARGI (HsARGI) [2]): 14 µM
- block of HsARGI activity (in words) (human ARGI (HsARGI) [2]): completely blocked

Compound: NC(N)=NCCC[C@@H](N)C(=O)O [D-arginine]
- activity as substrate of HsARGI (human ARGI (HsARGI) [3]): no activity
- activity as substrate of LmARG [4]: did not recognize

Compound: N[C@@H](CS)C(=O)O [L-cysteine]
- selective inhibition: preference for LmARG over HsARGI [1]: greater potency toward LmARG
- Type of Inhibition [1]: Competitive
- Ki ([1]; Ki vs. LmARG): 11000 µM
- inhibition [1]: > 50%
- Ki (human ARGI (HsARGI) [2]): > 30000 µM

- inhibition at 40000 µM (human ARGI (HsARGI) [2]): > 50%
Compound: CC(C)C[C@H](N)C(=O)O [L-leucine]
- selective inhibition: preference for HsARGI over LmARG (human ARGI (HsARGI) [2]): preferentially inhibited the HsARGI activity

- inhibition at 40000 µM (human ARGI (HsARGI) [2]): > 50%
Compound: NCCCC[C@H](N)C(=O)O [L-lysine]
- selective inhibition: preference for HsARGI over LmARG (human ARGI (HsARGI) [2]): preferentially inhibited the HsARGI activity

- inhibition at 40000 µM (human ARGI (HsARGI) [2]): > 50%
Compound: NCCC[C@H](N)C(=O)O [L-ornithine]
- selective inhibition: preference for HsARGI over LmARG (human ARGI (HsARGI) [2]): preferentially inhibited the HsARGI activity

Compound: N=C(NO)NCCC[C@H](N)C(=O)O [NOHA, N^ω-hydroxy-L-arginine]
- block of LmARG activity (in words) [1]: completely blocked
- inhibition of LmARG [1]: > 50%
- Type of Inhibition [1]: Competitive
- Ki ([1]; read-out: Ki vs. LmARG): 85 µM
- block of HsARGI activity (in words) (human ARGI (HsARGI) [2]): completely blocked
- inhibition of HsARGI (human ARGI (HsARGI) [2]): > 50%
- EC50 [5]: 6000 µM
- EC50 (L. major promastigotes): 40 µM

Compound: NCCCCN=C(N)N [agmatine]
- activity as substrate of HsARGI (human ARGI (HsARGI) [3]): no activity
- activity as substrate of LmARG [4]: did not recognize

Compound: OB(O)O [boric acid]
- inhibition of LmARG [1]: > 50%
- inhibition of HsARGI (human ARGI (HsARGI) [2]): > 50%
- selective inhibition: preference for HsARGI over LmARG (human ARGI (HsARGI) [2]): preferentially inhibited the HsARGI activity

Compound: N=C(NO)NCC[C@H](N)C(=O)O [nor-NOHA, N^ω-hydroxy-nor-L-arginine]
- block of LmARG activity (in words) [1]: completely blocked
- Type of Inhibition [1]: Competitive
- inhibition [1]: > 50%
- block of HsARGI activity (in words) (human ARGI (HsARGI) [2]): completely blocked
- inhibition at 40000 µM (human ARGI (HsARGI) [2]): > 50%
- inhibition of conversion of arginine to ornithine by intact promastigotes [6]: does not inhibit

Compound: N[C@@H](CCC(=O)N[C@H]1CSSC[C@H](NC(=O)CC[C@H](N)C(=O)O)C(=O)NCC(=O)NCCCNCCCCNC(=O)CNC1=O)C(=O)O [trypanothione]
- inhibition of LmARG [1]: > 50%
- Type of Inhibition [1]: Uncompetitive
- Ki ([1]; read-out: Ki vs. LmARG): < 5000 µM
- inhibition of HsARGI (human ARGI (HsARGI) [2]): > 50%
- selective inhibition: preference for HsARGI over LmARG (human ARGI (HsARGI) [2]): preferentially inhibited the HsARGI activity

Compound: [Cl-].[Cl-].[Zn+2] [zinc, ZnCl2]
- LmARG activity on co-activation with manganese [7]: reduced activity to zero

Compound: Leishmania mexicana arginase (LmARG) (Leishmania mexicana)
- Km (N=C(N)NCCC[C@H](N)C(=O)O): 25 ± 4 mM

From paper PMC3062745 (International journal for parasitology, 2011)
